Like-named read-outs stand apart in the source and are kept apart here.
Key:
[1] = tested on: paclitaxel (albumin bound) chemotherapy-induced peripheral neuropathy; assay: Paclitaxel (albumin bound) chemotherapy-induced peripheral neuropathy in rats, butylphthalide intraperitoneal injection (Example 1); assay type: in vivo, SD (Sprague Dawley) rats; details: NBP 1.5, 5 and 15 mg/kg bid i.p., compared with the model group
Procedure: The normal group was administered with 0.9% normal saline (0.9% INJ NS) at the same frequency. The animal grouping, the administration method, and the doses are detailed in Table 3. Based on the thermal pain threshold baselines and the body weights of the rats, the rats with the baseline values ranging from 3 to 6 s were selected, and were equally grouped in accordance with the above Table 3. […] (2) Thermal pain threshold: IITC Life Science Electronic Von Frey Anesthesio meter was used and the intensity of the light source was adjusted to obtain a baseline of thermal pain threshold of about 3-6 s. […] The rats were placed in a plastic compartment on a glass plate, to make the planta centers of the rats be exposed to the light source.

[2] = tested on: Jeko-1; assay: In vitro tumor cell proliferation, MTT (Example 7); details: Homo sapiens, JeKo-1, 72 h
Procedure: This experiment includes a monotherapy group of Bortezomib, a combined therapy group (Bortezomib/NBP), and a monotherapy group of NBP. Different drug concentration gradients were set for each group.
Monotherapy group of Bortezomib: (1) MM.1S, Jeko-1, and HT29 cells: Bortezomib was 1.5× serially diluted from an initial concentration of 20 nM to 8 concentrations: 20, 13.33, 8.89, 5.93, 3.95, 2.63, 1.76, and 1.17 nM, respectively; (2) A549 cells: Bortezomib was 2×serially diluted from an initial concentration of 200 nM to 8 concentrations: 200, 100, 50, 25, 12.5, 6.25, 3.13, and 1.56 nM, respectively; and (3) DU145 cells: Bortezomib was 2× serially diluted from an initial concentration of 100 nM to 8 concentrations: 100, 50, 25, 12.5, 6.25, 3.13, 1.56, and 0.78 nM, respectively.
Monotherapy group of NBP: NBP was 2× serially diluted from an initial concentration of 480 μM to 8 concentrations: 480, 240, 120, 60, 30, 15, 7.5, and 3.75 μM, respectively.
The action time of the drug was 72 h.
A certain number of conventionally cultured cells in logarithmic growth phase were inoculated in a 96-well plate with 100 μL per well. […] For adherent cells HT29, A549, and DU145, the above drugs were added 24 h after adherence. 3 replicate wells were set for each concentration of each drug, and blank wells (only culture medium was present, and no tumor cells were inoculated) and normal wells (a culture medium inoculated with tumor cells, drug concentration was 0) were set. The drugs functioned for 72 h, then MTT working solution (5 mg/mL) was added at 20 μL per well; after functioning at 37° C. for 4 h, the supernatant was removed, 150 μL of DMSO (analytically pure) was added; the mixture was fully mixed using a microplate oscillator, the plate was wiped clean, and the optical density (OD) at 550 nm was measured using a microplate reader.
The cell growth inhibition rate was computed using the following equation:
Inhibition rate (%)=(OD valuenormal well−OD valueadministration well)/(OD valuenormal well−OD valueblank well)×100%
Based on the inhibition rate of each concentration, the median inhibitory concentration IC50 of the drug was computed using SPSS19.0.

CCCCC1OC(=O)c2ccccc21 (stereo not drawn) [NBP, 3-n-butylphthalide]
body weights of the rats ([1]; D4-16): not significantly changed
thermal pain threshold (increase in model rats) ([1]; D7-13, P<0.05 or P<0.01): significantly decreased
inhibition at 30 µM ([2]; read-out: Inhibition rate, First dose): -7.67%
inhibition at 30 µM ([2]; read-out: Inhibition rate, Mean ± SD): -11.5 ± 6.32%
inhibition at 30 µM ([2]; read-out: Inhibition rate, Second dose): -18.8%
inhibition at 30 µM ([2]; read-out: Inhibition rate, Third dose): -8.11%
